Measurements published in patent US20180222836A1, “Process for the Preparation of Pharmaceutical Grade Ferric Citrate” (Lupin Limited, priority 2015, published 2018).

Assay: BET active specific surface area (U.S. Pharmacopeia General Chapter <846>)
Format: physicochemical
Details: pharmaceutical grade ferric citrate, dried powder from one-pot process
Protocol: According to the present invention, the pharmaceutical grade ferric citrate having BET surface area in the range of […]. the method of analysis for BET surface are of the ferric citrate is performed as per U.S. Pharmacopeia General Chapter <846>.

Substance	BET Active Specific Surface Area [m^2/gm]
ferric citrate [EXAMPLE-1]	6.51
ferric citrate [EXAMPLE-2]	6.47
